Assays:
[1] = tested on: mouse; conditions: Subchronic oral toxicity in rodents, cd1, Feed, dose end: 13 week, group: systemic, systemic / pathology microscopic / adrenal gland / vacuolization cytoplasmic + systemic / pathology microscopic / bone marrow / …
[2] = tested on: rat; conditions: Subchronic oral toxicity in rodents, fischer, Feed, dose end: 13 week, group: systemic, systemic / pathology microscopic / thyroid gland / vacuolization + systemic / organ weight / heart / nos
[3] = tested on: dog; conditions: Subchronic oral toxicity in nonrodent, beagle, Feed, dose end: 13 week, group: systemic, systemic / pathology microscopic / intestine large / vacuolization + systemic / pathology microscopic / intestine small / vacuolization + …
[4] = tested on: rat; conditions: Combined chronic toxicity/carcinogenicity, fischer, Oral, Feed, dose end: 24 month, group: systemic
[5] = tested on: dog; conditions: Chronic toxicity, beagle, Oral, Feed, dose end: 52 week, group: systemic
[6] = tested on: mouse; conditions: Carcinogenicity, cd1, Oral, Feed, dose end: 18 month, group: systemic
[7] = tested on: rat; conditions: Multigenerational reproductive toxicity study, sprague dawley, Oral, Feed, dose end: 2 generation
[8] = tested on: rat; conditions: Subchronic oral toxicity in rodents, fischer, Feed, dose end: 3 month, group: systemic
[9] = tested on: rat; conditions: Subchronic oral toxicity in rodents, other, Feed, dose end: 90 day, group: systemic
[10] = tested on: dog; conditions: Subchronic oral toxicity in nonrodent, beagle, Feed, dose end: 90 day, group: systemic, systemic / clinical chemistry / alkaline phosphatase (alp/alk) / alkaline phosphatase (alp/alk) + systemic / organ weight / liver / absolute…
[11] = tested on: mouse; conditions: Carcinogenicity, cd1, Oral, Feed, dose end: 78 week, group: systemic
[12] = tested on: rat; conditions: Prenatal developmental toxicity study, other, Oral, Gavage/Intubation, dose end: 15 GD
[13] = tested on: rat; conditions: Combined chronic toxicity/carcinogenicity, sprague dawley, Oral, Feed, dose end: 24 month, group: systemic
[14] = tested on: rat; conditions: Subchronic oral toxicity in rodents, other, Feed, dose end: 90 day, group: systemic, systemic / in life observation / body weight / body weight gain + systemic / pathology microscopic / kidney / regeneration + systemic / …
[15] = tested on: rat; conditions: Multigenerational reproductive toxicity study, sprague dawley, Oral, Feed, dose end: 2 generation; remark: listed apart in the source
[16] = tested on: rat; conditions: Subchronic oral toxicity in rodents, sprague dawley, Feed, dose end: 90 day, group: systemic, systemic / organ weight / kidney / absolute + systemic / organ weight / kidney / relative to body weight + systemic / organ weight / kidney…
[17] = tested on: dog; conditions: Subchronic oral toxicity in nonrodent, beagle, Capsule, dose end: 90 day, group: systemic, systemic / clinical chemistry / [other] / [other] + systemic / clinical chemistry / alkaline phosphatase (alp/alk) / alkaline phosphatase (…
[18] = systemic / pathology microscopic / thyroid gland / vacuolization
[19] = systemic / pathology microscopic / thyroid gland / vacuolization + systemic / clinical chemistry / alkaline phosphatase (alp/alk) / alkaline…
[20] = systemic / pathology microscopic / lymph node / vacuolization + systemic / pathology microscopic / spleen / vacuolization + systemic / organ…
[21] = group: offspring, systemic / in life observation / body weight / offspring (pup) weight
[22] = group: parental, systemic / organ weight / heart / absolute + systemic / organ weight / heart / relative to body weight + systemic / organ weight / kidney / …
[23] = group: reproductive, reproductive / offspring survival early / litter size / litter size + reproductive / offspring survival early / birth index / live birth …
[24] = systemic / pathology microscopic / heart / cardiomyopathy + systemic / pathology microscopic / lymph node / histiocytosis + systemic / …
[25] = systemic / pathology microscopic / lymph node / histiocytosis + systemic / pathology microscopic / spleen / histiocytosis + systemic / …
[26] = systemic / pathology microscopic / liver / inclusion body intracytoplasmic
[27] = systemic / in life observation / mortality / mortality + systemic / organ weight / kidney / absolute + systemic / organ weight / kidney / …
[28] = group: developmental, developmental / developmental malformation / aortic arch / retroesophageal + developmental / developmental malformation / bone / misshapen…
[29] = group: maternal, systemic / in life observation / body weight / body weight + systemic / in life observation / body weight / body weight gain
[30] = group: maternal, systemic / in life observation / body weight / body weight + systemic / in life observation / body weight / body weight gain + reproductive…
[31] = systemic / in life observation / body weight / body weight + systemic / in life observation / body weight / body weight gain + systemic / in…
[32] = group: offspring, developmental / offspring survival late / [other] / [other] + developmental / offspring survival late / viability index / viability index + …
[33] = group: offspring, systemic / pathology microscopic / kidney / dilatation
[34] = group: parental, systemic / in life observation / body weight / body weight + systemic / in life observation / food consumption / food consumption + systemic…

SMILES: CC[C@H]1CCC[C@H](O[C@H]2CC[C@H](N(C)C)[C@@H](C)O2)[C@@H](C)C(=O)C2=C[C@@H]3[C@@H](C=C(C)[C@@H]4C[C@@H](O[C@@H]5O[C@@H](C)[C@H](OC)[C@@H](OC)[C@H]5OC)C[C@@H]34)[C@@H]2CC(=O)O1.CC[C@H]1CCC[C@H](O[C@H]2CC[C@H](N(C)C)[C@@H](C)O2)[C@@H](C)C(=O)C2=C[C@@H]3[C@@H](C=C[C@@H]4C[C@@H](O[C@@H]5O[C@@H](C)[C@H](OC)[C@@H](OC)[C@H]5OC)C[C@@H]34)[C@@H]2CC(=O)O1 [Spinosad]
- LEL [1]: 22.5 mg/kg/day
- LOAEL [1]: 22.5 mg/kg/day
- NEL [1]: 7.5 mg/kg/day
- NOAEL [1]: 7.5 mg/kg/day
- LEL [2]: 42.7 mg/kg/day
- LOAEL [2]: > 42.7 mg/kg/day
- NOAEL [2]: ≥ 42.7 mg/kg/day
- LEL [3]: 9.73 mg/kg/day
- LOAEL [3]: 9.73 mg/kg/day
- NEL [3]: 4.89 mg/kg/day
- NOAEL [3]: 4.89 mg/kg/day
- LEL [4, 18]: 9.5 mg/kg/day
- LOAEL [4, 18]: 24.1 mg/kg/day
- NEL [4, 19]: 2.4 mg/kg/day
- NOAEL [4, 19]: 9.5 mg/kg/day
- LOAEL ([5]; systemic / pathology microscopic / lymph node / vacuolization + systemic / pathology microscopic / spleen / vacuolization): 8.22 mg/kg/day
- LEL [5, 20]: 8.22 mg/kg/day
- NEL [5, 20]: 2.72 mg/kg/day
- NOAEL [5, 20]: 2.72 mg/kg/day
- LOAEL ([6]; systemic / hematology / leukocyte (wbc) count differential / leukocyte (wbc)): 41.5 mg/kg/day
- NOAEL ([6]; systemic / hematology / leukocyte (wbc) count differential / leukocyte (wbc) + systemic / organ weight / liver / relative to body weight + …): 1.3 mg/kg/day
- NEL ([6]; systemic / organ weight / brain / relative to body weight): 1.1 mg/kg/day
- LEL ([6]; systemic / organ weight / brain / relative to body weight + systemic / in life observation / body weight / body weight + systemic / in life …): 32.7 mg/kg/day
- LEL [7, 21]: 10 mg/kg/day
- NEL [7, 21]: 3 mg/kg/day
- NOAEL ([7]; group: offspring, systemic / in life observation / clinical signs / hemorrhagic perineal discharge): 10 mg/kg/day
- LOAEL ([7]; group: offspring, systemic / in life observation / clinical signs / hemorrhagic perineal discharge + systemic / in life observation / body weight / offspring…): 100 mg/kg/day
- LEL [7, 22]: 100 mg/kg/day
- LOAEL [7, 22]: 100 mg/kg/day
- NEL [7, 22]: 10 mg/kg/day
- NOAEL [7, 22]: 10 mg/kg/day
- NEL [7, 23]: 10 mg/kg/day
- NOAEL [7, 23]: 10 mg/kg/day
- LOAEL ([7]; group: reproductive, reproductive / offspring survival early / litter size / litter size + reproductive / reproductive performance / dystocia / dystocia): 100 mg/kg/day
- LEL ([7]; group: reproductive, reproductive / offspring survival early / litter size / litter size + reproductive / reproductive performance / dystocia / dystocia + …): 100 mg/kg/day
- LOAEL [8, 24]: 68.5 mg/kg/day
- NOAEL [8, 24]: 33.9 mg/kg/day
- LEL [8, 25]: 33.9 mg/kg/day
- NEL [8, 25]: < 33.9 mg/kg/day

SMILES: COCC(=O)N(c1c(C)cccc1C)[C@H](C)C(=O)OC [Metalaxyl-M]
- LEL [9, 26]: 44.8 mg/kg/day
- NEL [9, 26]: 16.8 mg/kg/day
- LOAEL ([9]; systemic / pathology microscopic / liver / infiltration cellular + systemic / pathology microscopic / liver / inclusion body …): 90.5 mg/kg/day
- LEL [10]: 38.6 mg/kg/day
- LOAEL [10]: 38.6 mg/kg/day
- NEL [10]: 7.25 mg/kg/day
- NOAEL [10]: 7.25 mg/kg/day

SMILES: O=C(O)CCCOc1ccc(Cl)cc1Cl [2,4-DB]
- LOAEL [11, 27]: 112 mg/kg/day
- NOAEL [11, 27]: 37.5 mg/kg/day
- LEL ([11]; systemic / in life observation / mortality / mortality + systemic / pathology microscopic / kidney / amyloid deposition + systemic / …): 112 mg/kg/day
- NEL ([11]; systemic / organ weight / kidney / absolute + systemic / organ weight / kidney / relative to body weight + systemic / organ weight / liver…): 37.5 mg/kg/day
- LEL [12, 28]: 125 mg/kg/day
- LOAEL [12, 28]: 125 mg/kg/day
- NEL [12, 28]: 62.5 mg/kg/day
- NOAEL [12, 28]: 62.5 mg/kg/day
- LEL [12, 29]: 62.5 mg/kg/day
- LOAEL [12, 29]: 62.5 mg/kg/day
- NEL [12, 30]: 31.2 mg/kg/day
- NOAEL [12, 30]: 31.2 mg/kg/day
- LOAEL [13, 31]: 30 mg/kg/day
- NOAEL [13, 31]: 3 mg/kg/day
- NEL ([13]; systemic / organ weight / liver / absolute + systemic / organ weight / heart / absolute + systemic / organ weight / spleen / absolute + …): 90 mg/kg/day
- LEL [14]: 50 mg/kg/day
- LOAEL [14]: 50 mg/kg/day
- NEL [14]: 15.8 mg/kg/day
- NOAEL [14]: 15.8 mg/kg/day
- LOAEL [15, 32]: 112 mg/kg/day
- NOAEL [15, 32]: 25 mg/kg/day
- LEL [15, 33]: 25 mg/kg/day
- NEL [15, 33]: 5 mg/kg/day
- LEL [15, 34]: 112 mg/kg/day
- LOAEL [15, 34]: 112 mg/kg/day
- NEL [15, 34]: 25 mg/kg/day
- NOAEL [15, 34]: 25 mg/kg/day
- LEL [16]: 41.9 mg/kg/day
- LOAEL [16]: 41.9 mg/kg/day
- NEL [16]: 4.16 mg/kg/day
- NOAEL [16]: 4.16 mg/kg/day
- LEL [17]: 25 mg/kg/day
- LOAEL [17]: 25 mg/kg/day
- NEL [17]: 8 mg/kg/day
- NOAEL [17]: 8 mg/kg/day

Source: EPA's ToxRefDB 2
